Source: ChEMBL document CHEMBL3112395, “Synthesis and structure-activity relationship studies of N-terminal analogues of the antimicrobial peptide tridecaptin A(1)” (J Med Chem, 2014)
In brackets after ≈: the same amount, converted by molar mass.

Columns and labels:
Acinetobacter baumannii = assay: Antibacterial activity against Acinetobacter baumannii ATCC 19606 assessed as growth inhibition by broth dilution method; type: functional
Pseudomonas aeruginosa = assay: Antibacterial activity against Pseudomonas aeruginosa ATCC 27853 assessed as growth inhibition by broth dilution method; type: functional
Listeria monocytogenes = assay: Antibacterial activity against Listeria monocytogenes ATCC […] assessed as growth inhibition by broth dilution method; type: functional
Enterococcus faecium = assay: Antibacterial activity against Enterococcus faecium ATCC 19434 assessed as growth inhibition by broth dilution method; type: functional
Campylobacter jejuni = assay: Antibacterial activity against Campylobacter jejuni NCTC 11168 assessed as growth inhibition by broth dilution method; type: functional
Escherichia coli [1] = assay: Antibacterial activity against Escherichia coli ATCC 25922 assessed as growth inhibition by broth dilution method; type: functional
Enterococcus faecalis = assay: Antibacterial activity against Enterococcus faecalis ATCC 29212 assessed as growth inhibition by broth dilution method; type: functional
Salmonella enterica = assay: Antibacterial activity against Salmonella enterica ATCC 13311 assessed as growth inhibition by broth dilution method; type: functional
Staphylococcus aureus = assay: Antibacterial activity against Staphylococcus aureus ATCC 29213 assessed as growth inhibition by broth dilution method; type: functional
Klebsiella pneumoniae [2] = assay: Antibacterial activity against Klebsiella pneumoniae ATCC 13883 assessed as growth inhibition by broth dilution method; type: functional
[3] = Hemolytic activity in rabbit erythrocytes at 83 ug/mL after 30 mins relative to control; type: ADME, cell-based, Oryctolagus cuniculus, Erythrocyte; conditions: read-out: Activity
[4] = Cytotoxicity against HEK293 cells assessed as growth inhibition after 48 hrs by MTT assay; type: cell-based; conditions: human, read-out: MIC
Escherichia coli [5] = assay: Antibacterial activity against Escherichia coli O157:H7 assessed as growth inhibition by broth dilution method; type: functional
[6] = Antibacterial activity against multi-drug resistant Clostridium difficile 630 assessed as growth inhibition by broth dilution method; type: functional, Clostridioides difficile 630; conditions: Clostridioides difficile
Enterobacter cloacae = assay: Antibacterial activity against multi-drug resistant Enterobacter cloacae 849 clinical isolate assessed as growth inhibition by broth dilution method; type: functional
Klebsiella pneumoniae [7] = assay: Antibacterial activity against multi-drug resistant Klebsiella pneumoniae KpCG clinical isolate assessed as growth inhibition by broth dilution method; type: functional

SMILES	MIC (Acinetobacter baumannii) [µg/mL]	MIC (Pseudomonas aeruginosa) [µg/mL]	MIC (Listeria monocytogenes) [µg/mL]	MIC (Enterococcus faecium) [µg/mL]	MIC (Campylobacter jejuni) [µg/mL]	MIC (Escherichia coli [1]) [µg/mL]	MIC (Enterococcus faecalis) [µg/mL]	MIC (Salmonella enterica) [µg/mL]	MIC (Staphylococcus aureus) [µg/mL]	MIC (Klebsiella pneumoniae [2]) [µg/mL]	hemolysis at 0.5 h, 83 ug/mL [3] [%]	MCC at 48 h [4] [µg/mL]	MIC (Escherichia coli [5]) [µg/mL]	MIC [6] [µg/mL]	MIC (Enterobacter cloacae) [µg/mL]	MIC (Klebsiella pneumoniae [7]) [µg/mL]
CC[C@H](C)[C@@H](NC(=O)[C@@H](NC(=O)[C@H](CCC(=O)O)NC(=O)[C@H](Cc1ccccc1)NC(=O)[C@@H](CCN)NC(=O)[C@H](CCN)NC(=O)[C@H](CO)NC(=O)[C@@H](Cc1c[nH]c2ccccc12)NC(=O)[C@@H](CO)NC(=O)CNC(=O)[C@@H](CCN)NC(=O)[C@H](NC(C)=O)C(C)C)C(C)C)C(=O)N[C@@H](C)C(=O)O	> 100	> 100	> 100	> 100	100 (≈ 69.6 µM)	50 (≈ 34.8 µM)	> 100	100 (≈ 69.6 µM)	> 100	50 (≈ 34.8 µM)	–	–	–	–	–	–
CCCC(=O)N[C@@H](C(=O)N[C@H](CCN)C(=O)NCC(=O)N[C@H](CO)C(=O)N[C@H](Cc1c[nH]c2ccccc12)C(=O)N[C@@H](CO)C(=O)N[C@@H](CCN)C(=O)N[C@H](CCN)C(=O)N[C@@H](Cc1ccccc1)C(=O)N[C@@H](CCC(=O)O)C(=O)N[C@H](C(=O)N[C@@H](C(=O)N[C@@H](C)C(=O)O)[C@@H](C)CC)C(C)C)C(C)C	100 (≈ 68.3 µM)	> 100	> 100	> 100	12.5 (≈ 8.53 µM)	12.5 (≈ 8.53 µM)	> 100	25 (≈ 17.1 µM)	> 100	25 (≈ 17.1 µM)	0.8	–	–	–	–	–
CCCCCC(=O)N[C@@H](C(=O)N[C@H](CCN)C(=O)NCC(=O)N[C@H](CO)C(=O)N[C@H](Cc1c[nH]c2ccccc12)C(=O)N[C@@H](CO)C(=O)N[C@@H](CCN)C(=O)N[C@H](CCN)C(=O)N[C@@H](Cc1ccccc1)C(=O)N[C@@H](CCC(=O)O)C(=O)N[C@H](C(=O)N[C@@H](C(=O)N[C@@H](C)C(=O)O)[C@@H](C)CC)C(C)C)C(C)C	25 (≈ 16.7 µM)	50 (≈ 33.5 µM)	100 (≈ 67 µM)	> 100	3.13 (≈ 2.1 µM)	3.13 (≈ 2.1 µM)	> 100	6.25 (≈ 4.19 µM)	> 100	3.13 (≈ 2.1 µM)	–	–	–	–	–	–
CCCCCCCC(=O)N[C@@H](C(=O)N[C@H](CCN)C(=O)NCC(=O)N[C@H](CO)C(=O)N[C@H](Cc1c[nH]c2ccccc12)C(=O)N[C@@H](CO)C(=O)N[C@@H](CCN)C(=O)N[C@H](CCN)C(=O)N[C@@H](Cc1ccccc1)C(=O)N[C@@H](CCC(=O)O)C(=O)N[C@H](C(=O)N[C@@H](C(=O)N[C@@H](C)C(=O)O)[C@@H](C)CC)C(C)C)C(C)C	12.5 (≈ 8.22 µM)	25 (≈ 16.4 µM)	25 (≈ 16.4 µM)	50 (≈ 32.9 µM)	0.78 (≈ 0.513 µM)	3.13 (≈ 2.06 µM)	100 (≈ 65.8 µM)	6.25 (≈ 4.11 µM)	100 (≈ 65.8 µM)	3.13 (≈ 2.06 µM)	4.7	100	0.43 (≈ 0.283 µM)	12.7 (≈ 8.35 µM)	0.43 (≈ 0.283 µM)	2.33 (≈ 1.53 µM)
CCCCCCCCCCCC(=O)N[C@@H](C(=O)N[C@H](CCN)C(=O)NCC(=O)N[C@H](CO)C(=O)N[C@H](Cc1c[nH]c2ccccc12)C(=O)N[C@@H](CO)C(=O)N[C@@H](CCN)C(=O)N[C@H](CCN)C(=O)N[C@@H](Cc1ccccc1)C(=O)N[C@@H](CCC(=O)O)C(=O)N[C@H](C(=O)N[C@@H](C(=O)N[C@@H](C)C(=O)O)[C@@H](C)CC)C(C)C)C(C)C	50 (≈ 31.7 µM)	> 100	50 (≈ 31.7 µM)	100 (≈ 63.4 µM)	0.4 (≈ 0.254 µM)	12.5 (≈ 7.93 µM)	> 100	50 (≈ 31.7 µM)	> 100	12.5 (≈ 7.93 µM)	82.2	–	–	–	–	–
CC[C@H](C)[C@@H](NC(=O)[C@@H](NC(=O)[C@H](CCC(=O)O)NC(=O)[C@H](Cc1ccccc1)NC(=O)[C@@H](CCN)NC(=O)[C@H](CCN)NC(=O)[C@H](CO)NC(=O)[C@@H](Cc1c[nH]c2ccccc12)NC(=O)[C@@H](CO)NC(=O)CNC(=O)[C@@H](CCN)NC(=O)[C@H](NC(=O)OCC1c2ccccc2-c2ccccc21)C(C)C)C(C)C)C(=O)N[C@@H](C)C(=O)O	12.5 (≈ 7.73 µM)	> 100	12.5 (≈ 7.73 µM)	25 (≈ 15.5 µM)	0.78 (≈ 0.482 µM)	6.25 (≈ 3.87 µM)	50 (≈ 30.9 µM)	6.25 (≈ 3.87 µM)	100 (≈ 61.8 µM)	6.25 (≈ 3.87 µM)	100	–	–	–	–	–
